Results: ChEMBL document CHEMBL1201862, “PubChem BioAssay data set” (2004)
The source made the active and inactive calls.

How the values were obtained:
Aminopeptidase N = Aminopeptidase N (Plasmodium falciparum FcB1/Columbia, UniProt O96935); assay: malaria alanyl aminopeptidase activity blockers – biochemical, fluorogenic H-Leu-NHMec substrate, 1536-well (AID 1445); parameters: species or system Plasmodium falciparum 3D7, 3D7
[1] = molecular target: T1, Polyadenylate-binding protein 1 (Homo sapiens, UniProt P11940); assay: MLLE binding blockers, Cy5 peptide tracer – biochemical, fluorescence polarization, Cy5-PAM2 peptide, secondary, miRNA deadenylation inhibitor project, dose response (AID 602260); assay type: functional; settings: read-out: IC50_Mean
[2] = molecular target: T1, Polyadenylate-binding protein 1; assay: MLLE domain peptide-binding blockers, IC50 – biochemical, fluorescence polarization, FITC-PAM2 peptide, dose response (AID 602259); assay type: functional; settings: read-out: IC50_Mean
[3] = M. tuberculosis H37Rv growth inhibitors, H37Rv strain (AID 1626); assay type: functional
[4] = Luminescence Cell-Based Dose Response to Identify Activators of 5'UTR Stem-Loop Driven Prion Protein mRNA Translation in H4-C Neuroglioblastoma Cells. [Related pubchem assays: 1829 (Project Summary), 1814 (Primary HTS)]; assay type: functional
[5] = Luminescence Cell-Based Dose Response HTS to Identify Activators of Luciferase Translation or Activity in H4 […] Cells. [Related pubchem assays: 1829 (Project Summary), 1814 (Primary HTS)]; assay type: functional
H4 = assay: Luminescence Cell-Based Dose Response HTS to Identify Activators of 5'UTR Stem-Loop Driven Prion Protein mRNA Translation in H4 Neuroglioblastoma Cells. [Related pubchem assays: 1829 (Project Summary), 1814 (Primary HTS)]; assay type: functional; settings: Homo sapiens
[6] = Luminescence Cell-Based Dose Response to Identify Activators of Luciferase Translation or Activity in H4-C Neuroglioblastoma Cells. [Related pubchem assays: 1829 (Project Summary), 1814 (Primary HTS)]; assay type: functional
[7] = HPDE-C7 pancreatic duct cell viability loss – fluorescence, HTS (AID 430); assay type: functional, cell-based; settings: Homo sapiens
[8] = viability loss of HPDE-C7K cells – cell-based, fluorescence, HTS, primary screen (AID 431); assay type: functional; settings: Homo sapiens
[9] = Luminescence Cell-Based Dose Confirmation to Identify Activators of 5'UTR Stem-Loop Driven Alpha-Synuclein mRNA Translation in H4 Neuroglioblastoma Cells. [Related pubchem assays: 1829 (Project Summary), 1814 (Primary HTS)]; assay type: functional
Caspase-3 = molecular target: T2, Caspase-3 (Homo sapiens, UniProt P42574); assay type: functional;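 further: Dose-response selectivity test against caspase-3 for candidate inhibitors of sentrin-specific proteases (SENPs)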
T2 sequence (P42574 whole entry): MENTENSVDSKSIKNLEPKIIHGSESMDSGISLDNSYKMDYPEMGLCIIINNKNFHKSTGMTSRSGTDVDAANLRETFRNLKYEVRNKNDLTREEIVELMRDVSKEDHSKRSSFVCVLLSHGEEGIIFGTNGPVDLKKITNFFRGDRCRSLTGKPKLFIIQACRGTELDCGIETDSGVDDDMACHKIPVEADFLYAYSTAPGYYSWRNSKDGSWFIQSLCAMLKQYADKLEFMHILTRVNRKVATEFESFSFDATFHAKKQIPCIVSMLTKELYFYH

[10] = molecular target: T3, Sentrin-specific protease 7 (Homo sapiens, UniProt Q9BQF6); assay type: functional;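 further: Luminescence-based dose-response confirmation of ultra-high-throughput screening hits, measuring inhibition of SENP7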
T3 sequence (Q9BQF6 whole entry): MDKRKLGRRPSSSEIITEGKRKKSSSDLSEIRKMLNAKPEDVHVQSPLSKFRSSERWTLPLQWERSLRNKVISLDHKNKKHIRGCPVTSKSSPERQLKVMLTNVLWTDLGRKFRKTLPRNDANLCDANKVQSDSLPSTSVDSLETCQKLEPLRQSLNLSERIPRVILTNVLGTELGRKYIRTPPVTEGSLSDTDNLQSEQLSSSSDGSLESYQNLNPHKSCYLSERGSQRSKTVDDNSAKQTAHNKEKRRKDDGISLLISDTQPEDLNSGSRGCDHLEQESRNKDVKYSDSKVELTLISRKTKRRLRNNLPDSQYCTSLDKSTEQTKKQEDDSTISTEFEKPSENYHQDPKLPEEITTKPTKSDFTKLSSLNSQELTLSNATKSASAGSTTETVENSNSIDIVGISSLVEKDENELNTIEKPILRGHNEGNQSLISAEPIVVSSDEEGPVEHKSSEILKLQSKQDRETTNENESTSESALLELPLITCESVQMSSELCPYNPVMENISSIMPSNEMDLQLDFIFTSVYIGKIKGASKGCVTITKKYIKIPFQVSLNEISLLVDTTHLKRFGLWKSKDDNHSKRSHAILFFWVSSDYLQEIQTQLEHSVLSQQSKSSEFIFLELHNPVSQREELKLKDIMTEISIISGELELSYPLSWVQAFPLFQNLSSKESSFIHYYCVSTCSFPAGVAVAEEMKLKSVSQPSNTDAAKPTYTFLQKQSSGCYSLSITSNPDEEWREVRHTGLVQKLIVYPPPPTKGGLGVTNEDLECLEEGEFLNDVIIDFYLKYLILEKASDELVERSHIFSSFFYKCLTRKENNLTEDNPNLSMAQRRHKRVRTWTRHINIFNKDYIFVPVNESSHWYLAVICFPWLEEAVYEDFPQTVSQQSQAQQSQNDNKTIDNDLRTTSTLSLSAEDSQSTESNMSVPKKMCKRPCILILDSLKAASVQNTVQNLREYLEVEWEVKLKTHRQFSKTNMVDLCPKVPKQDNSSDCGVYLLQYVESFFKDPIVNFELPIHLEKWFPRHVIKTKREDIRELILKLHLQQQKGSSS

[11] = molecular target: T4, Sentrin-specific protease 6 (Homo sapiens, UniProt Q9GZR1); assay type: functional;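 further: Luminescence-based dose-response confirmatory assay of SENP6 inhibition, following up an ultra-high-throughput screen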
T4 sequence (Q9GZR1 whole entry): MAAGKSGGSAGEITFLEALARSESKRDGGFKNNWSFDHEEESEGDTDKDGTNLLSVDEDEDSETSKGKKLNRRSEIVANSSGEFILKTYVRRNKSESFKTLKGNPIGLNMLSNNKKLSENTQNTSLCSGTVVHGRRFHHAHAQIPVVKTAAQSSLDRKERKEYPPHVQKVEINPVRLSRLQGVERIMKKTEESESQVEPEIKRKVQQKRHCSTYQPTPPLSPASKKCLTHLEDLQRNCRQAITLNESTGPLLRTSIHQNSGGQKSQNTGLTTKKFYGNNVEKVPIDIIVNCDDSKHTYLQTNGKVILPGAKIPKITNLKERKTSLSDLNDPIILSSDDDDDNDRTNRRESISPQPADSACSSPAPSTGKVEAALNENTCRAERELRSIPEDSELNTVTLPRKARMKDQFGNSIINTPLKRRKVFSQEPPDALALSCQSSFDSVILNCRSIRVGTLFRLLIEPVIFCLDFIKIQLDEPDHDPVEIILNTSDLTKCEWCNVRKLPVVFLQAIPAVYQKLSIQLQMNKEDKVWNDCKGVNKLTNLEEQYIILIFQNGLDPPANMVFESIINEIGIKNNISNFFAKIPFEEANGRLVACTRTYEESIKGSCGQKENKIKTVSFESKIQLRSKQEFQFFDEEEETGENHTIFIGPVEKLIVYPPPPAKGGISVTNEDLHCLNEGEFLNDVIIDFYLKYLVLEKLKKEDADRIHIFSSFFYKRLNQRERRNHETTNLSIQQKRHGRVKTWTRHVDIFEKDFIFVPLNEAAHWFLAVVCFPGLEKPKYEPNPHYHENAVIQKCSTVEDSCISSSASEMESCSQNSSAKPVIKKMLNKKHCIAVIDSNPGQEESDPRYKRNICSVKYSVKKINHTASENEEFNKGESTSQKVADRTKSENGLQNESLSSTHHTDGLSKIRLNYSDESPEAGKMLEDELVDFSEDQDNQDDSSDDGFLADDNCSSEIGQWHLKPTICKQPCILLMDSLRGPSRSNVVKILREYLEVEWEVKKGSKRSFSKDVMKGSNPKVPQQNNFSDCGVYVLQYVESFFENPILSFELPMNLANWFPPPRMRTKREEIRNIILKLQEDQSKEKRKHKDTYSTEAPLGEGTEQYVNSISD

[12] = molecular target: T5, Sentrin-specific protease 8 (Homo sapiens, UniProt Q96LD8); assay type: functional;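 further: luminescence read-out of SENP8 inhibition, dose-response confirmation following an ultra-high-throughput screen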
T5 sequence (Q96LD8 whole entry): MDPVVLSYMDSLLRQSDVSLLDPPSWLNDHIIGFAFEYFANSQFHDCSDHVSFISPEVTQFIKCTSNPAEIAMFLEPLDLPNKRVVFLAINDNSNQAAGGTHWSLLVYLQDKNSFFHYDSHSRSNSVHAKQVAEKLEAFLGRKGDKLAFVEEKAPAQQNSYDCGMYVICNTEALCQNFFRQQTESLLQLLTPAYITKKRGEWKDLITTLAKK

[13] = molecular target: Disintegrin and metalloproteinase domain-containing protein 17 (Homo sapiens, UniProt P78536); assay: exosite inhibitors of ADAM17, dose response, biochemical (AID 743260)
[14] = molecular target: Lysosomal acid glucosylceramidase (Homo sapiens, UniProt P04062); assay: Dose response cell-based high throughput screening assay to identify enhancers of beta-glucosidase activity. [Related pubchem assays: 784 ]; assay type: functional
[15] = viability of uninfected HEp-2 cells – cell-based, HTS, cytotoxicity control for RSV inhibitor project, dose response (AID 2410); assay type: functional; settings: human respiratory syncytial virus
BJ [16] = assay: BJ-TERT fibroblast viability loss – cell-based, RAS-independent, luminescence, dose response (AID 1933); assay type: functional; settings: Homo sapiens
BJ [17] = assay: cells; assay type: functional, cell-based; settings: Homo sapiens
BJ [18] = assay: BJ-TERT-LT-ST fibroblast viability loss – cell-based, RAS-independent, luminescence, dose response (AID 1935); assay type: functional; settings: Homo sapiens;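 further: BJ fibroblasts immortalized with TERT plus LT and ST oncogenes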
[19] = DRD fibroblast viability loss – cell-based, non-viral oncogenic, luminescence, dose response (AID 1934); assay type: functional; settings: Homo sapiens
Vero [20] = assay: cells; assay type: functional, cell-based; settings: Chlorocebus sabaeus
Vero [21] = assay: cells; assay type: functional; settings: Chlorocebus sabaeus
cells [22] = assay: cells
Protein skinhead-1 = molecular target: T6, Protein skinhead-1 (Caenorhabditis elegans, UniProt P34707); assay type: functional
T6 sequence (P34707 whole entry): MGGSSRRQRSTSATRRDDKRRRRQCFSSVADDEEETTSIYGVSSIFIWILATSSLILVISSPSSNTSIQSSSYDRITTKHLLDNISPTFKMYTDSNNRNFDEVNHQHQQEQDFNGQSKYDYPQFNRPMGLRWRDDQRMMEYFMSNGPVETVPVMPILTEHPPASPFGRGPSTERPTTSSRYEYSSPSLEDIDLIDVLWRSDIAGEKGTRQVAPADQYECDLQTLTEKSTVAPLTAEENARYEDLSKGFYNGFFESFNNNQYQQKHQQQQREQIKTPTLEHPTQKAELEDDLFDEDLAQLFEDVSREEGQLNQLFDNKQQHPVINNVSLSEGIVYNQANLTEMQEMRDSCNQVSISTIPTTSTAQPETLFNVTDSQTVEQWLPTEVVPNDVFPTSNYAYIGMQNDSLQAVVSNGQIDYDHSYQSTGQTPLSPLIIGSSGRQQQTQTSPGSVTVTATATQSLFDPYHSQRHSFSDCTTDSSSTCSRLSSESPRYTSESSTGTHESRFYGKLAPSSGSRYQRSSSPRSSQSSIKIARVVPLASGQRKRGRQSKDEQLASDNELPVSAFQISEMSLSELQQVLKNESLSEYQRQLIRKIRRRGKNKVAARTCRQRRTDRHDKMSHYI

[23] = molecular target: T7, Oxysterols receptor LXR-beta (Homo sapiens, UniProt P55055); assay type: functional, cell-based;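 further: Cell-based luminescence dose-response assay of agonist activity at LXR, run as a confirmatory counterscreen to a daf-12 agonist screen; HEK293 cells with Gal4-LXR fusion and GAL4-driven luciferase reporter; agonist potency from rising luciferase signal of a Gal4-LXR reporter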
T7 sequence (P55055 whole entry): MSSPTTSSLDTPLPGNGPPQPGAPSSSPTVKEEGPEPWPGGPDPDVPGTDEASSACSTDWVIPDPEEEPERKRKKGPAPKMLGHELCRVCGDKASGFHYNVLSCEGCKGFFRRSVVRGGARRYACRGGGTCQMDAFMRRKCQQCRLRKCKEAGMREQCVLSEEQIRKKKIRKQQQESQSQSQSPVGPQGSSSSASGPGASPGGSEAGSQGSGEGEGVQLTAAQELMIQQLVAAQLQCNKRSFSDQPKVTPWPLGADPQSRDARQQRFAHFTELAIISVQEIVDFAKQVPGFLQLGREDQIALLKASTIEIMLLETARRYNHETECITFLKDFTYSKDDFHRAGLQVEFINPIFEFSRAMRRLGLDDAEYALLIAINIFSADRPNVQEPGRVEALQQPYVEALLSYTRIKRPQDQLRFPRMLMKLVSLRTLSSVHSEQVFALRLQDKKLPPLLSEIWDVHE

cells [24] = assay: cells; remark: listed apart in the source
[25] = Trypanosoma cruzi growth suppression in host cells – NIH3T3 host cells, beta-gal luminescence, confirmation (AID 2044); assay type: functional, cell-based;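 further: intracellular parasites grown in NIH/3T3 mouse fibroblasts as host cells; luminescent beta-galactosidase reporter signal from transgenic T. cruzi replicating inside host cells; inhibitors lower the luminescence signal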
[26] = NIH3T3 cell viability loss – ATP luminescence, mouse fibroblasts, counter-screen, dose response (AID 2010); assay type: functional, cell-based;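 further: cells exposed to compound for about 90 hours before reading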

Sequence of Lysosomal acid glucosylceramidase (P04062 whole entry): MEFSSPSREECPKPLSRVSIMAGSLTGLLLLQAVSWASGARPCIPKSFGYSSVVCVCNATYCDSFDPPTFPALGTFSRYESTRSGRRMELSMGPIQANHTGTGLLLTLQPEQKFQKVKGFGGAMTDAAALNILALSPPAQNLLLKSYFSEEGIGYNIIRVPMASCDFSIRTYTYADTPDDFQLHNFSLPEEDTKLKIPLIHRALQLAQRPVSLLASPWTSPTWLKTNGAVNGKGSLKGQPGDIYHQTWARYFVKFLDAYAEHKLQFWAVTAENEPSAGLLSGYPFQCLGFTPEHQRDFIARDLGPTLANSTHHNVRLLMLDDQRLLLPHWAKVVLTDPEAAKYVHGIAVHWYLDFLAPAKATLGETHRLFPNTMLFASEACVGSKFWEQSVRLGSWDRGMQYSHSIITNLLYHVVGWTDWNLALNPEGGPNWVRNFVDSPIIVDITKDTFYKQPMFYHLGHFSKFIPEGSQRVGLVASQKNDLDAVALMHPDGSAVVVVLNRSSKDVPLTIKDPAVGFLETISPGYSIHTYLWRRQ
T1 sequence (P11940 whole entry, the tested form may be a part): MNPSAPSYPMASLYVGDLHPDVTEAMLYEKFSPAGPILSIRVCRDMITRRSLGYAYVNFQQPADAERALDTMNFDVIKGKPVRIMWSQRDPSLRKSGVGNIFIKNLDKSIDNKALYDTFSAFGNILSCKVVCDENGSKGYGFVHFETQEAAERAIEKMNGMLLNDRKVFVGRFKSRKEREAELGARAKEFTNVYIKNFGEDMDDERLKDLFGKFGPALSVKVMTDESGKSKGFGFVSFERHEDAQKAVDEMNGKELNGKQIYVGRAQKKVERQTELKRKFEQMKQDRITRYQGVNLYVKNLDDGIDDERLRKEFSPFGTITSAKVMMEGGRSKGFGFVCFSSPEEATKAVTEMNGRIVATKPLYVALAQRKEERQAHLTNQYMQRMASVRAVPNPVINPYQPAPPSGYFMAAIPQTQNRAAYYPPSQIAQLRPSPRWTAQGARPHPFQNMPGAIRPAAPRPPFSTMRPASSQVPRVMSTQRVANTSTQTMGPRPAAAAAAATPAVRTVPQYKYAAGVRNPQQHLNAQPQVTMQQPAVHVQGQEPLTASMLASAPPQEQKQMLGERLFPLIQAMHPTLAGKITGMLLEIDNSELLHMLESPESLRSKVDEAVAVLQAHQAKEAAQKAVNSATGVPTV
Sequence of Disintegrin and metalloproteinase domain-containing protein 17 (P78536 whole entry, the tested form may be a part): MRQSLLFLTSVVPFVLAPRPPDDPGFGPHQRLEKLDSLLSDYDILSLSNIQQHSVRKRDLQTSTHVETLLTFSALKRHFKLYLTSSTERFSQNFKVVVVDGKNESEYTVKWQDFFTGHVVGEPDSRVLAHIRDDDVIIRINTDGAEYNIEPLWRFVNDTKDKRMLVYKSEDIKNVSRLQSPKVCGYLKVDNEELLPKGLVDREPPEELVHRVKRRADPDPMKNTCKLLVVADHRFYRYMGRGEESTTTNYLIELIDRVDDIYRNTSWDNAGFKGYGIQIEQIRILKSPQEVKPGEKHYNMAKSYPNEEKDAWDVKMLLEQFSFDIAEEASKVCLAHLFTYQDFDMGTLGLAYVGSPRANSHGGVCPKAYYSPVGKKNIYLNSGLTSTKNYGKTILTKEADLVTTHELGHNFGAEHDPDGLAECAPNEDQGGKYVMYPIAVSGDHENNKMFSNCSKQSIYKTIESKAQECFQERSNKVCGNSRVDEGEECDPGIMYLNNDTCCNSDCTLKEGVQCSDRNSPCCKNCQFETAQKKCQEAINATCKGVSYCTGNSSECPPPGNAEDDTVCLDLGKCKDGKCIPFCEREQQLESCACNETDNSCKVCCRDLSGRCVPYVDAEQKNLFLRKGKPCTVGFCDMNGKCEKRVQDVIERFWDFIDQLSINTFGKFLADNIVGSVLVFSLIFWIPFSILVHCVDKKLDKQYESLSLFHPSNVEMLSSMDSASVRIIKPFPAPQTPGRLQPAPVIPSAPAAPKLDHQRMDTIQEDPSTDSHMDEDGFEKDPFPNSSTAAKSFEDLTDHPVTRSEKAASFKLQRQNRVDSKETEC
Sequence of Aminopeptidase N (O96935 whole entry): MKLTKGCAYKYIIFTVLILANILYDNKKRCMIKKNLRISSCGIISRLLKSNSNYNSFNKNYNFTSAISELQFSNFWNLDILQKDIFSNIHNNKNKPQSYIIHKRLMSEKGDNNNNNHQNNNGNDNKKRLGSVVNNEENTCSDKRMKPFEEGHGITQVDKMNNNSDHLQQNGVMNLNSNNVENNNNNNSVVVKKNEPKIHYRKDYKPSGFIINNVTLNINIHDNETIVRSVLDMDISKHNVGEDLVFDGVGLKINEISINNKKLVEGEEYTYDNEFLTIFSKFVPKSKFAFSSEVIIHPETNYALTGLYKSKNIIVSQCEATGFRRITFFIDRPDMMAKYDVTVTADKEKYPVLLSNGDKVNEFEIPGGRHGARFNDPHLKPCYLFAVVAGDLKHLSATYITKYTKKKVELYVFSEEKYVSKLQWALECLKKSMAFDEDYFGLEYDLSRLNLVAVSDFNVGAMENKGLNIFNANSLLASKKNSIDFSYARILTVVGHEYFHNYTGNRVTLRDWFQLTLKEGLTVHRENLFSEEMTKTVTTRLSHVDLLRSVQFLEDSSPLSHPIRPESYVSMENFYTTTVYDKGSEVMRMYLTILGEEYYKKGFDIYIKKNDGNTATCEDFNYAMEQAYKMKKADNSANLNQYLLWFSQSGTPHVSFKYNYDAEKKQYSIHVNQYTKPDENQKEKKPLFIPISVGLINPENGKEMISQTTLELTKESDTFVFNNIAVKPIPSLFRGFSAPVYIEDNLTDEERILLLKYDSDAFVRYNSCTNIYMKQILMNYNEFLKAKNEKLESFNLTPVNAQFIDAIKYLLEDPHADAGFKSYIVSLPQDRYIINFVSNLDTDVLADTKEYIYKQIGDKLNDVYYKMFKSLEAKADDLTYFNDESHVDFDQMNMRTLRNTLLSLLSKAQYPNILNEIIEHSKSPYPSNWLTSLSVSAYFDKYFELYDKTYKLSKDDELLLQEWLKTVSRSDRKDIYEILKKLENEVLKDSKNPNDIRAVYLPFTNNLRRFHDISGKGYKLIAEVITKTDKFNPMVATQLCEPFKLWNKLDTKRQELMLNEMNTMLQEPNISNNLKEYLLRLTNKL

## CCNc1cc2oc(=O)c(CN3CCOCC3)c(C)c2cc1C
Aminopeptidase N
  IC50: 32.2 µM (active)
[1]
  IC50: > 66 µM (inactive)
[2]
  IC50: > 66 µM (inactive)

## CCOc1ccc2nc(NC(=O)CSC3=NCCS3)sc2c1
[3]
  IC50: > 100 µM (active)

## CC(C)(C)c1ccc(OCc2nc(-c3ccccn3)no2)c(Br)c1
[4]
  EC50: 0.683 µM (active)
[5]
  EC50: < 0.1 µM (active)
H4
  EC50: < 0.1 µM (active)
[6]
  EC50: 0.91 µM (active)
[7]
  EC50: 11.5 µM (active)
[8]
  EC50: 11.9 µM (active)
[9]
  EC50: 0.114 µM (active)
Caspase-3
  IC50: 33.8 µM (active)
[10]
  IC50: 5.88 µM (active)
[11]
  IC50: 17.6 µM (active)
[12]
  IC50: 13.5 µM (active)
[13]
  IC50: > 69.5 µM (inactive)

## O=C(CCS(=O)(=O)c1cccc2nonc12)N1CCCc2ccccc21
[14]
  EC50: > 50 µM (not active)

## COc1cc(NC(=S)NC(=O)c2ccc(C(C)(C)C)cc2)ccc1NC(=O)c1cccs1
[15]
  CC50: 18.9 µM (active)
BJ [16]
  EC50: 60.4 µM (active)
BJ [17]
  EC50: 32.9 µM (inconclusive)
BJ [18]
  EC50: > 150 µM (inconclusive)
[19]
  EC50: 72.6 µM (active)
Vero [20]
  IC50: 2.5 µM (active)
Vero [21]
  CC50: > 25 µM (active)
Cells [22]
  IC50: 8.44 µM (active)

## Cc1ccc(N/C=C(/C(=O)c2ccco2)C(=O)C(F)(F)F)cc1Cl
[3]
  IC50: > 100 µM (active)
Protein skinhead-1
  IC50: 27.2 µM (active)
[23]
  EC50: > 67.5 µM (inactive)
Cells [24]
  EC50: > 67.5 µM (inactive)

## COC(=O)c1cc(NC(=O)CC2S/C(=N/c3ccccc3)N(CCc3c[nH]c4ccccc34)C2=O)cc(C(=O)OC)c1 (centres undefined)
[15]
  CC50: > 50 µM (active)
[25]
  EC50: 1.11 µM (active)
[26]
  EC50: > 60 µM (inconclusive)
Cells [22]
  IC50: 41.7 µM (active)

## Sc1nnc(Cc2ccccc2)n1Cc1ccco1
[14]
  EC50: > 50 µM (not active)
